Assays:
[1] = molecular target: CDK2 (Homo sapiens (Human), UniProt P24941); assay: Kinase profiling, % inhibition at 1.0 μM; type: biochemical; conditions: compound 1.0 μM; read-out: Inhibitory activity at 1.0 μM (%), CDK2
[2] = molecular target: PLK1 (Homo sapiens (Human), UniProt P53350); assay: Kinase profiling, % inhibition at 1.0 μM; type: biochemical; conditions: compound 1.0 μM; read-out: Inhibitory activity at 1.0 μM (%), PLK1
[3] = system: HepG2 cell lines (hepatoma carcinoma cell); assay: Inhibition on cell proliferation of HepG2 (SRB assay); type: cell-based; conditions: Homo sapiens, 72 hours treatment, SRB staining, read-out: Inhibitory activities against HepG2 (IC50)
Procedure: HepG2 cell lines (ATCC #HB-8065™) were obtained from ATCC (American type culture collection; Rockville, Md.). HepG2 cell lines were incubated in a MEM medium supplemented with 10% FBS (Gibco) and 1% penicillin/streptomycin (Gibco) under 37° C., 5% CO2 and 95% air. The carcinoma cells grown on the growth medium were transferred into a 96-well plate at a density of 5,000 cells/well (HepG2), and cultured for 18 hours or more. The cells were treated with 10 μM˜0.1 nM of the test compounds, and cultured for 72 hours. Subsequently, the cells were fixed with 10% TCA (trichloroacetic acid) and stained with SRB (sulforhodamine B), and absorbance values were measured at 540 nm. Then, IC50 values, i.e., the concentration of a compound to cause 50% reduction in proliferation of cancer cells, were calculated therefrom. The growth rates of cancer cells were calculated by Equation 1 or 2. [(Ti−Tz)/(C−Tz)]×100 (in case Ti>Tz) [Equation 1] [(Ti−Tz)/Tz]×100 (in case Ti<Tz) [Equation 2]
In Equations 1 and 2, ‘Tz’ refers to a the absorbance value measured in the cells just before the application of the test compound. ‘C’ refers to the absorbance value measured in the […], and ‘Ti’ refers to the absorbance value measured in the cells treated with the test compounds.
IC50 value is the concentration of the test compound when the value of Equation 1 is 50, which indicates the concentration of the test compound needed to reduce the growth of cancer cells to 50%. On each measurement, the test compounds were compared with a reference.

[4] = molecular target: Aurora A (Homo sapiens (Human), UniProt O14965); assay: Kinase profiling, % inhibition at 1.0 μM; type: biochemical; conditions: compound 1.0 μM; read-out: Inhibitory activity at 1.0 μM (%), Aurora A
[5] = molecular target: PDGFR-β (Homo sapiens (Human), UniProt P09619); assay: Kinase profiling, IC50; type: biochemical; conditions: read-out: Inhibitory activity (IC50, nM), PDGFR-β
Procedure: [The source words this procedure for another target and reports this target under the same test.] (§1) The compounds prepared in Examples were tested for inhibitory activities against three subtypes of RAF, i.e. RAF1 Y340D Y341D, BRAF normal type and BRAF V600E, using Kinase Profiling Service (Invitrogen) according to the manufacturer's instructions. The levels of the inhibitory activities of the compounds against the enzymes were calculated as % inhibitory activities at various concentrations. Based on the % inhibitory activities, dose-response curves were plotted and IC50 values were calculated using GraphPad Prism software.

[6] = molecular target: Abl (Homo sapiens (Human), UniProt P00519); assay: Kinase profiling, IC50; type: biochemical; conditions: read-out: Inhibitory activity (IC50, nM), Abl
Procedure: [The source words this procedure for another target and reports this target under the same test.] as §1

[7] = molecular target: EGFR (Homo sapiens (Human), UniProt P00533); assay: Kinase profiling, IC50; type: biochemical; conditions: read-out: Inhibitory activity (IC50, nM), EGFR
Procedure: [The source words this procedure for another target and reports this target under the same test.] as §1

[8] = molecular target: PDGFR-α (Homo sapiens (Human), UniProt P16234); assay: Kinase profiling, IC50; type: biochemical; conditions: read-out: Inhibitory activity (IC50, nM), PDGFR-α
Procedure: [The source words this procedure for another target and reports this target under the same test.] as §1

[9] = molecular target: B-Raf (WT) (Homo sapiens (Human), UniProt P15056); assay: Kinase profiling, IC50; type: biochemical; conditions: read-out: Inhibitory activity (IC50, nM), B-Raf (WT)
Procedure: as §1

[10] = molecular target: VEGFR-2 (Homo sapiens (Human), UniProt P35968); assay: Kinase profiling, IC50; type: biochemical; conditions: read-out: Inhibitory activity (IC50, nM), VEGFR-2
Procedure: [The source words this procedure for another target and reports this target under the same test.] as §1

[11] = molecular target: FGFR-1 (Homo sapiens (Human), UniProt P11362); assay: Kinase profiling, IC50; type: biochemical; conditions: read-out: Inhibitory activity (IC50, nM), FGFR-1
Procedure: [The source words this procedure for another target and reports this target under the same test.] as §1

[12] = molecular target: FGFR-2 (Homo sapiens (Human), UniProt P21802); assay: Kinase profiling, IC50; type: biochemical; conditions: read-out: Inhibitory activity (IC50, nM), FGFR-2
Procedure: [The source words this procedure for another target and reports this target under the same test.] as §1

[13] = molecular target: FLT-3 (Homo sapiens (Human), UniProt P36888); assay: Kinase profiling, IC50; type: biochemical; conditions: read-out: Inhibitory activity (IC50, nM), FLT-3
Procedure: [The source words this procedure for another target and reports this target under the same test.] as §1

[14] = molecular target: Her-2 (Homo sapiens (Human), UniProt P04626); assay: Kinase profiling, IC50; type: biochemical; conditions: read-out: Inhibitory activity (IC50, nM), Her-2
Procedure: [The source words this procedure for another target and reports this target under the same test.] as §1

[15] = molecular target: Src (Homo sapiens (Human), UniProt P12931); assay: Kinase profiling, IC50; type: biochemical; conditions: read-out: Inhibitory activity (IC50, nM), Src
Procedure: [The source words this procedure for another target and reports this target under the same test.] as §1

[16] = molecular target: IGF-1R (Homo sapiens (Human), UniProt P08069); assay: Kinase profiling, IC50; type: biochemical; conditions: read-out: Inhibitory activity (IC50, nM), IGF-1R
Procedure: [The source words this procedure for another target and reports this target under the same test.] as §1

[17] = molecular target: B-Raf (V600E) (Homo sapiens (Human), UniProt P15056, V600E); assay: Kinase profiling, IC50; type: biochemical; conditions: read-out: Inhibitory activity (IC50, nM), B-Raf (V600E)
Procedure: as §1

[18] = molecular target: FGFR4 (Homo sapiens (Human), UniProt P22455); assay: Kinase profiling, % inhibition at 1.0 μM; type: biochemical; conditions: compound 1.0 μM; read-out: Inhibitory activity at 1.0 μM (%), FGFR4
Procedure: [The source words this procedure for another target and says it was used here with some conditions changed.] as §1

[19] = molecular target: c-Kit (Homo sapiens (Human), UniProt P10721); assay: Kinase profiling, % inhibition at 1.0 μM; type: biochemical; conditions: compound 1.0 μM; read-out: Inhibitory activity at 1.0 μM (%), c-Kit
Procedure: [The source words this procedure for another target and says it was used here with some conditions changed.] as §1

[20] = molecular target: Tie-2 (Homo sapiens (Human), UniProt Q02763); assay: Kinase profiling, % inhibition at 1.0 μM; type: biochemical; conditions: compound 1.0 μM; read-out: Inhibitory activity at 1.0 μM (%), Tie-2
Procedure: [The source words this procedure for another target and says it was used here with some conditions changed.] as §1

[21] = molecular target: PLK2 (Homo sapiens (Human), UniProt Q9NYY3); assay: Kinase profiling, % inhibition at 1.0 μM; type: biochemical; conditions: compound 1.0 μM; read-out: Inhibitory activity at 1.0 μM (%), PLK2
Procedure: [The source words this procedure for another target and says it was used here with some conditions changed.] as §1

[22] = molecular target: Aurora B (Homo sapiens (Human), UniProt Q96GD4); assay: Kinase profiling, % inhibition at 1.0 μM; type: biochemical; conditions: compound 1.0 μM; read-out: Inhibitory activity at 1.0 μM (%), Aurora B
Procedure: [The source words this procedure for another target and says it was used here with some conditions changed.] as §1

[23] = molecular target: VEGFR1 (Homo sapiens (Human), UniProt P17948); assay: Kinase profiling, % inhibition at 1.0 μM; type: biochemical; conditions: compound 1.0 μM; read-out: Inhibitory activity at 1.0 μM (%), VEGFR1
Procedure: [The source words this procedure for another target and says it was used here with some conditions changed.] as §1

[24] = molecular target: PLK3 (Homo sapiens (Human), UniProt Q9H4B4); assay: Kinase profiling, % inhibition at 1.0 μM; type: biochemical; conditions: compound 1.0 μM; read-out: Inhibitory activity at 1.0 μM (%), PLK3
Procedure: [The source words this procedure for another target and says it was used here with some conditions changed.] as §1

[25] = molecular target: CDK1 (Homo sapiens (Human), UniProt P06493); assay: Kinase profiling, % inhibition at 1.0 μM; type: biochemical; conditions: compound 1.0 μM; read-out: Inhibitory activity at 1.0 μM (%), CDK1
[26] = molecular target: C-Raf (Homo sapiens (Human), UniProt P04049, Y340D/Y341D); assay: Inhibitory activity against C-Raf kinase (Invitrogen Kinase Profiling Service); type: biochemical
Procedure: as §1

Sequence of C-Raf (P04049 whole entry Y340D/Y341D): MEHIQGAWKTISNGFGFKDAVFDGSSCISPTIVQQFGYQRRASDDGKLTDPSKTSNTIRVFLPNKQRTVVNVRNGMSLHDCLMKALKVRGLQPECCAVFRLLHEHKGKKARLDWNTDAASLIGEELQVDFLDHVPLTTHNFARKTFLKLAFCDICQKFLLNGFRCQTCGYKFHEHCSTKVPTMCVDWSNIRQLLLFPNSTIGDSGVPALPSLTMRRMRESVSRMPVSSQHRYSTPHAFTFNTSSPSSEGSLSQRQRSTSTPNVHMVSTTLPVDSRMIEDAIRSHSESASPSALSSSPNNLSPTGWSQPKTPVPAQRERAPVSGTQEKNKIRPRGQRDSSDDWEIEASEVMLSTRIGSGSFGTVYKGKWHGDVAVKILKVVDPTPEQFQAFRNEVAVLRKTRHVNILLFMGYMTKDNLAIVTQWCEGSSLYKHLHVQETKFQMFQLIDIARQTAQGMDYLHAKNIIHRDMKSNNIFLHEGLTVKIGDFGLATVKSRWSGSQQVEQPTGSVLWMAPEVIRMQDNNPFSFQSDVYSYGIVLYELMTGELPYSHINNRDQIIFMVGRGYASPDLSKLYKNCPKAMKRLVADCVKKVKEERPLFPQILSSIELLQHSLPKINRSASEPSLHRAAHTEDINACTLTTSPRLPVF
Sequence of EGFR (P00533 25-1210): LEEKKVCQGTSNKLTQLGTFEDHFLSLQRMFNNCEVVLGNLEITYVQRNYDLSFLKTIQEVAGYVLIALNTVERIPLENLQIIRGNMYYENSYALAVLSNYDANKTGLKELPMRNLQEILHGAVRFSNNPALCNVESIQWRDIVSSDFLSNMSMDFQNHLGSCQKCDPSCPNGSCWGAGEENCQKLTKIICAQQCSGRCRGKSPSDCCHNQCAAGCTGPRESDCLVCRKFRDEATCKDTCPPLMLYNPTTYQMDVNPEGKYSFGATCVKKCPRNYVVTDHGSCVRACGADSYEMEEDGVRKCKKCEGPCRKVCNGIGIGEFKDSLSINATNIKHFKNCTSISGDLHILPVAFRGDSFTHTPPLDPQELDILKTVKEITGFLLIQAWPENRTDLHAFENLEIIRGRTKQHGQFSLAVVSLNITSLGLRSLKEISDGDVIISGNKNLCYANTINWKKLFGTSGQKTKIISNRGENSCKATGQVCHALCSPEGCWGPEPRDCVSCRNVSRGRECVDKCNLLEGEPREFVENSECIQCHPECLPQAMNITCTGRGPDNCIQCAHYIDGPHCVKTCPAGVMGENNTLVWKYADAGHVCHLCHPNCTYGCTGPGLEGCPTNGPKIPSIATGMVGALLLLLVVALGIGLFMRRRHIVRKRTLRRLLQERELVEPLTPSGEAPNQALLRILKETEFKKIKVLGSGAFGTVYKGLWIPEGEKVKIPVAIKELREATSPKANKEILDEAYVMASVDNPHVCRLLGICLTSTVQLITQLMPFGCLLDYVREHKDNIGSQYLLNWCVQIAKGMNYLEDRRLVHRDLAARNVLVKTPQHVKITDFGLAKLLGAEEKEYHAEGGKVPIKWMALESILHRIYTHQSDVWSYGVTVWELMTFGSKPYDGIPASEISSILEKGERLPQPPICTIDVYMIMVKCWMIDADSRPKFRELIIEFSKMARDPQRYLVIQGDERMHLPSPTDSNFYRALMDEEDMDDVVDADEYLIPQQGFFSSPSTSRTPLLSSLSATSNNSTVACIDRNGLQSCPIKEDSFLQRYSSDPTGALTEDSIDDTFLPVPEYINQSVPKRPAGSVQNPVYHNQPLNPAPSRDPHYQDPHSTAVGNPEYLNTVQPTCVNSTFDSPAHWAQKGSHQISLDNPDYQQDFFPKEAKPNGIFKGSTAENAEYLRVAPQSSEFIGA
Sequence of IGF-1R (P08069 31-1367): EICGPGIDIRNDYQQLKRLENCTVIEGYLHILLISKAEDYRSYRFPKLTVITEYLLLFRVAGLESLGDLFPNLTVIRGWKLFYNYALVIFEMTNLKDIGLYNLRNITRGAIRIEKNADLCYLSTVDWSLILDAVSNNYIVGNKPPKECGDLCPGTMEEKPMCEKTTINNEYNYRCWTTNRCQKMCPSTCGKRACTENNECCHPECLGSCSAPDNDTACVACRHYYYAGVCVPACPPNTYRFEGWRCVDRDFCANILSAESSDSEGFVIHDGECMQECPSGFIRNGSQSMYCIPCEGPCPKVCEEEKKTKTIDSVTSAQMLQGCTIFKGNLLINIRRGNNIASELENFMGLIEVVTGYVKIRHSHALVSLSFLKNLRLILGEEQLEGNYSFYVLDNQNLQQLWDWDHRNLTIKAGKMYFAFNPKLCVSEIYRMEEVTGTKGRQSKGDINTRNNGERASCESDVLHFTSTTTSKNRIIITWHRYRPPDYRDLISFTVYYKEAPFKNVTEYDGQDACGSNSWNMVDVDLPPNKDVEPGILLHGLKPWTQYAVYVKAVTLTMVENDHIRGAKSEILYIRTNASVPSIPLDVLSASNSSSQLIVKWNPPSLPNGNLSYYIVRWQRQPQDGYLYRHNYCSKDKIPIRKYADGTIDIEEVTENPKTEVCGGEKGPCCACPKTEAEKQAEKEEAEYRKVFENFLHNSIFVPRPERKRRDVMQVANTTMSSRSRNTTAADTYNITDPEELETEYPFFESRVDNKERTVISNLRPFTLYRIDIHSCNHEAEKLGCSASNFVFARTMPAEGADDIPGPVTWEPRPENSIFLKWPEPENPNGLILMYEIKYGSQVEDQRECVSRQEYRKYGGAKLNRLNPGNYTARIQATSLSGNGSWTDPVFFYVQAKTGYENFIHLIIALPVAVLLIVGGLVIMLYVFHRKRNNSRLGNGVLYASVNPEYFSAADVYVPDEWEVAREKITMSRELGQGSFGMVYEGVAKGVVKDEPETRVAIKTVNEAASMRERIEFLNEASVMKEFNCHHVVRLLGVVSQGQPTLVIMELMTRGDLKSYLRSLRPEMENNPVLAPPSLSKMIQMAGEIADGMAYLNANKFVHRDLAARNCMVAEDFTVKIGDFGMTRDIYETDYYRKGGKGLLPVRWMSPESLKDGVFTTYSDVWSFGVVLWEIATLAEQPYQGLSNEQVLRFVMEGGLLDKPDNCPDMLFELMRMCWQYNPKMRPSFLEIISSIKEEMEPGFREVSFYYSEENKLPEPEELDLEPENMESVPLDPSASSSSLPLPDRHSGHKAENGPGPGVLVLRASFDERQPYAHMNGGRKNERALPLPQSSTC
Sequence of Src (P12931 whole entry, looked up): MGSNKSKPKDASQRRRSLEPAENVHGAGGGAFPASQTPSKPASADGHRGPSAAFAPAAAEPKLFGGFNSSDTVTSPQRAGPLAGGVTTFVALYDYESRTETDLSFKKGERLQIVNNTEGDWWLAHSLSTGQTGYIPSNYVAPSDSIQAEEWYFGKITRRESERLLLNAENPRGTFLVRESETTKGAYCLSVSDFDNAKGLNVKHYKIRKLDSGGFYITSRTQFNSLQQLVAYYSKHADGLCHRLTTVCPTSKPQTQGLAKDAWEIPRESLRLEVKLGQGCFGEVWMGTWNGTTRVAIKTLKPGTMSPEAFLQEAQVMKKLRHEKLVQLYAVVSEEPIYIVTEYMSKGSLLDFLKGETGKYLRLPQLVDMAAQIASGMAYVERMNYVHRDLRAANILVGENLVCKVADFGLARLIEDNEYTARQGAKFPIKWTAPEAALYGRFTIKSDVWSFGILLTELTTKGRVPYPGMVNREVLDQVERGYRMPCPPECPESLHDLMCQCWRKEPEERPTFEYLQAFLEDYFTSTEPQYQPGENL
Sequence of FGFR4 (P22455 22-802): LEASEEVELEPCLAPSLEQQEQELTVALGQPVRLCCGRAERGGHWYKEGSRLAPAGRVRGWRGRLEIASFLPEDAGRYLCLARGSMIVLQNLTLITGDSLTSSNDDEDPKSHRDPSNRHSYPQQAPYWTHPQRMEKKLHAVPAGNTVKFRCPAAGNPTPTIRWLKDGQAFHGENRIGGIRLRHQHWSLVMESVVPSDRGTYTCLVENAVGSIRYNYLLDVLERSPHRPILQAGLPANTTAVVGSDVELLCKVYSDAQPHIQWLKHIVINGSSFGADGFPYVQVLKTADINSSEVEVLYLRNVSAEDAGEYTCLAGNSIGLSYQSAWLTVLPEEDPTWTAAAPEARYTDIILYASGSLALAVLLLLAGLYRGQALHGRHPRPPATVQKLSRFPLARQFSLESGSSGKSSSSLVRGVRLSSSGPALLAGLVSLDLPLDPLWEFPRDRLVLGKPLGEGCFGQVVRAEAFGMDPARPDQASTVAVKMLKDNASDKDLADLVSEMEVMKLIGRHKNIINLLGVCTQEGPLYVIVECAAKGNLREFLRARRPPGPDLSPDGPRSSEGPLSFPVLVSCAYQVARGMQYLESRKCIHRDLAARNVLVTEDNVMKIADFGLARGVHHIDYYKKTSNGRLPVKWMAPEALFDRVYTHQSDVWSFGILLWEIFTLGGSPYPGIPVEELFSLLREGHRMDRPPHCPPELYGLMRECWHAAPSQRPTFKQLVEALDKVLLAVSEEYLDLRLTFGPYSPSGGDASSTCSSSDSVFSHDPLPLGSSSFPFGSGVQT
Sequence of Aurora A (O14965 whole entry): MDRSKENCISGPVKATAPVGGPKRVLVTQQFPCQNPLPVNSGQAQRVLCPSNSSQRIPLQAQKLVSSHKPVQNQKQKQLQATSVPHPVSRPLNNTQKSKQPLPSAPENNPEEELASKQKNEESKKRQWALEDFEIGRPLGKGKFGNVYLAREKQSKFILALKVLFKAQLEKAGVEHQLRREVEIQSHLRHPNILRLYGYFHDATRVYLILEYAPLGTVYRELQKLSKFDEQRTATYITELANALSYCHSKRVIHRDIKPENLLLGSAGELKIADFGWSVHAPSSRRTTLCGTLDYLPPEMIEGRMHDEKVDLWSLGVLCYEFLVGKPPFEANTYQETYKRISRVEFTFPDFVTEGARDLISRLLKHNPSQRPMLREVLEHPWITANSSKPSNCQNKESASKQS

Cc1ccc(NC(=O)c2cccc(C(F)(F)F)c2)cc1NC(=O)c1cccc2c(N)nccc12 [Example 1, 1-amino-N-(2-methyl-5-(3-(trifluoromethyl)benzamido)phenyl)isoquinoline-5-carboxamide]
inhibition at 1 µM [1]: 6%
inhibition at 1 µM [2]: -1%
IC50 [3]: 210 nM
inhibition at 1 µM [4]: 62%
IC50 [5]: 66 nM
IC50 [6]: > 2500 nM
IC50 [7]: > 2500 nM
IC50 [8]: 393 nM
IC50 [9]: 87 nM
IC50 [10]: 261 nM
IC50 [11]: > 2500 nM
IC50 [12]: > 2500 nM
IC50 [13]: > 2500 nM
IC50 [14]: > 2500 nM
IC50 [15]: > 2500 nM
IC50 [16]: > 2500 nM
IC50 [17]: 61 nM
inhibition at 1 µM [18]: 7%
inhibition at 1 µM [19]: 34%
inhibition at 1 µM [20]: 20%
inhibition at 1 µM [21]: 7%
inhibition at 1 µM [22]: 23%
inhibition at 1 µM [23]: 9%
inhibition at 1 µM [24]: 9%
inhibition at 1 µM [25]: 9%
IC50 [26]: 6.1 nM

Cc1ccc(C(=O)Nc2cccc(C(F)(F)F)c2)cc1NC(=O)c1cccc2c(NC(C)(C)C)nccc12 [Example 2, 1-(t-butylamino)-N-(2-methyl-5-((3-(trifluoromethyl)phenyl)carbamoyl)phenyl)isoquinoline-5-carboxamide]
IC50 [3]: 365 nM
IC50 [26]: 11 nM

Cc1ccc(C(=O)Nc2cccc(C(F)(F)F)c2)cc1NC(=O)c1cccc2c(N)nccc12 [Example 3, 1-amino-N-(2-methyl-5-((3-(trifluoromethyl)phenyl)carbamoyl)phenyl)isoquinoline-5-carboxamide]
IC50 [3]: 131 nM
IC50 [26]: 2.8 nM

Cc1ccc(C(=O)Nc2ccc(Cl)c(C(F)(F)F)c2)cc1NC(=O)c1cccc2c(N)nccc12 [Example 4, 1-amino-N-(5-((4-chloro-3-(trifluoromethyl)phenyl)carbamoyl)-2-methylphenyl)isoquinoline-5-carboxamide]
IC50 [26]: 10.7 nM

CCN1CCN(Cc2ccc(NC(=O)c3ccc(C)c(NC(=O)c4cccc5c(NC(C)(C)C)nccc45)c3)cc2C(F)(F)F)CC1 [Example 6, 1-(t-butylamino)-N-(5-((4-((4-ethylpiperazin-1-yl)methyl)-3-(trifluoromethyl)phenyl)carbamoyl)-2-methylphenyl)isoquinoline-5-carboxamide]
IC50 [26]: 6.4 nM

Cc1ccc(C(=O)Nc2ccccc2)cc1NC(=O)c1cccc2c(NC(C)(C)C)nccc12 [Example 8, 1-(t-butylamino)-N-(2-methyl-5-(phenylcarbamoyl)phenyl)isoquinoline-5-carboxamide]
IC50 [26]: 20.5 nM

Cc1cn(-c2cc(NC(=O)c3ccc(C)c(NC(=O)c4cccc5c(N)nccc45)c3)cc(C(F)(F)F)c2)cn1 [Example 11, 1-amino-N-(2-methyl-5-((3-(4-methyl-1H-imidazol-1-yl)-5-(trifluoromethyl)phenyl)carbamoyl)phenyl)isoquinoline-5-carboxamide]
IC50 [26]: 94.8 nM

Cc1ccc(NC(=O)Nc2cccc(C(F)(F)F)c2)cc1NC(=O)c1cccc2c(N)nccc12 [Example 14, 1-amino-N-(2-methyl-5-(3-(3-(trifluoromethyl)phenyl)ureido)phenyl)isoquinoline-5-carboxamide]
IC50 [26]: 108 nM

CCCS(=O)(=O)Nc1ccc(F)c(C(=O)c2c[nH]c3ncc(-c4ccc(Cl)cc4)cc23)c1F [reference, Vemurafenib, reference compound]
IC50 [3]: > 10000 nM

— patent publication US9388165B2, “Isoquinoline-5-carboxamide derivative having inhibitory activity for protein kinase” (HANMI PHARM. CO., LTD., priority 2012, dated 2016)
